The values below come from patent US20180042918A1, “RESPIRATORY INFECTION TREATING AGENT” (KYORIN PHARMACEUTICAL CO., LTD., priority 2015, published 2018).

As usually defined, the AUC is the area under the concentration-time curve, a measure of exposure. As a reminder, the Cmax is the maximum level reached in the sampled fluid or tissue. In general, pIC50 refers to the IC50 on a negative log10 scale, so that one unit is a factor of ten. Low readings indicate a high IC50, high ones a low IC50. For orientation: IC50 means the concentration that gives 50% inhibition.

pIC50: −log10 of the molar value. In brackets after ≈: the same amount, converted by molar mass. Read-outs that look alike come from different tables or passages of the source. Marks after values point to notes of the source that are not given here. Some results are limits rather than exact numbers.

The test system of series [1] is S. pneumoniae GF9821. Put plainly: microbe, parasite or virus in culture. It counts as cell-based. The following applies: Streptococcus pneumoniae.
Series [2] relates to S. pneumoniae SF9863. Put plainly: microbe, parasite or virus in culture. It is filed as cell-based. The following applies: Streptococcus pneumoniae.
Series [3] deals with S. pneumoniae SN9981. Put plainly: microbe, parasite or virus in culture. It counts as cell-based. Particulars: Streptococcus pneumoniae.
The test system of series [4] is S. aureus MS5935 1st. Put plainly: microbe, parasite or virus in culture. It is filed as cell-based. The following applies: Staphylococcus aureus, MS59351ST.
The conditions of series [5]: consecutive administration, daily dose of 500 mg; cited from earlier work.
In series [6] the test system is S. pneumoniae KY-9. Put plainly: Antibacterial activity against Streptococcus pneumoniae in vitro, CLSI microdilution. It is filed as cell-based. The following applies: KY9. On the procedure:
The antibacterial activities in vitro of the compound D, garenoxacin, and levofloxacin against a strain in a mouse infected with Streptococcus pneumoniae (S. pneumonia KY-9) were measured in accordance with a CLSI microdilution method.

Series [7] addresses DNA gyrase derived from S. pneumoniae IID553 (Streptococcus pneumoniae serotype 4, UniProt P0A4L9+P72524). The series can be described thus: Enzyme inhibitory activity, supercoiling of relaxed pBR322.
Series [8] deals with S. aureus ATCC29213. The series can be described thus: MIC of strain used for resistance frequency test. It counts as cell-based. Particulars: Staphylococcus aureus, ATCC29213.
Series [9] concerns the target Topoisomerase IV (S. pneumoniae IID553) (Streptococcus pneumoniae serotype 4, UniProt P72525+Q59961). Put plainly: Enzyme inhibitory activity, decatenation of kinetoplast DNA.
For series [10], the system named is S. aureus MS5935 2nd. The series can be described thus: microbe, parasite or virus in culture. It is filed as cell-based. The following applies: Staphylococcus aureus, MS59352ND.
The test system of series [11] is S. pneumoniae ST9941. Put plainly: microbe, parasite or virus in culture. It is filed as cell-based. Particulars: Streptococcus pneumoniae.
The test system of series [12] is S. aureus ATCC29213. Put plainly: Frequency of development of resistant bacteria. It counts as cell-based, Staphylococcus aureus. Particulars: about 70 hours. On the procedure:
(§1) S. aureus ATCC29213 is Staphylococcus aureus, S. pneumoniae ATCC49619 is Streptococcus pneumoniae, and E. coli ATCC25922 is Escherichia coli. […]
(§2) The frequency of development of resistant bacteria was calculated by dividing the number of colonies developed on an agar medium having each drug concentration by the number of initially inoculated bacteria.

For series [13], the system named is S. pneumoniae CF9842. Put plainly: microbe, parasite or virus in culture. The following applies: Streptococcus pneumoniae. It counts as cell-based.
Series [14] concerns E. coli ATCC25922. The series can be described thus: microbe, parasite or virus in culture. It is filed as cell-based. Particulars: Escherichia coli.
Series [15] deals with S. pneumoniae IID553. The series can be described thus: microbe, parasite or virus in culture. The following applies: Streptococcus pneumoniae. It is filed as cell-based.
Series [16] has as its system S. pneumoniae ATCC49619. Put plainly: microbe, parasite or virus in culture. It counts as cell-based. Particulars: Streptococcus pneumoniae.
In series [17] the test system is S. pneumoniae NF9884. The series can be described thus: microbe, parasite or virus in culture. It is filed as cell-based. Particulars: Streptococcus pneumoniae.
The test system of series [18] is S. aureus MS5935 4th. Put plainly: microbe, parasite or virus in culture. The following applies: Staphylococcus aureus, MS59354TH. It counts as cell-based.
The test system of series [19] is S. pneumoniae ATCC49619. The series can be described thus: Frequency of development of resistant bacteria. It counts as cell-based, Streptococcus pneumoniae. The following applies: about 70 hours. On the procedure:
as §1, §2

Series [20] concerns E. coli ATCC25922. Put plainly: Frequency of development of resistant bacteria. It counts as cell-based, Escherichia coli. The following applies: about 70 hours. On the procedure:
as §1, §2

The subject of series [21] is S. aureus MS5935 3rd. Put plainly: microbe, parasite or virus in culture. Particulars: Staphylococcus aureus, MS59353RD. It is filed as cell-based.
For series [22], the target named is QUINOLONE RESISTANT DNA gyrase (quinolone-resistant S. aureus) (Staphylococcus aureus, UniProt P20831). The series can be described thus: Enzyme inhibitory activity, supercoiling of relaxed pBR322. It is filed as biochemical. Particulars: average of three or average ± SD, read-out: IC50 VALUE, QUINOLONE RESISTANT DNA gyrase (converted). On the procedure:
(§3) Agents Chemother. 45: 3544-3547 (2001). […] The measurement was performed in the same manner as in Test Example 3. Similarly, the inhibitory activities of ciproxacin, levofloxacin, and garenoxacin were measured. The results were compared.

Series [23] addresses DNA gyrase derived from S. aureus (Staphylococcus aureus, UniProt P0A0K8+P20831). The series is described as above. It is filed as biochemical. Particulars: S. aureus enzyme; average of three or average ± SD; read-out: IC50 VALUE, DNA gyrase (converted). On the procedure:
as §3

The target of series [24] is QUINOLONE RESISTANT Topoisomerase IV (S. aureus) (Staphylococcus aureus, UniProt P0C1U9). The series can be described thus: Enzyme inhibitory activity, decatenation of kinetoplast DNA. It is filed as biochemical. Particulars: read-out: IC50 VALUE, QUINOLONE RESISTANT Topoisomerase IV (converted). As to the method: as §3
The target of series [25] is Topoisomerase IV (S. aureus) (Staphylococcus aureus, UniProt P0C1S7+P0C1U9). The description is as above. It is filed as biochemical. Particulars: S. aureus enzyme; read-out: IC50 VALUE, Topoisomerase IV (converted). On the procedure:
as §3

Series [26] concerns S. aureus MS5935. The series can be described thus: Antibacterial activity against quinolone-resistant strain in vitro, CLSI dilution. It counts as cell-based. The following applies: Staphylococcus aureus; S. aureus MS5935, PARENT STRAIN, gyrA None, grlA None.
In series [27] the test system is S. aureus MS5935 gyrA mutant. Put plainly: microbe, parasite or virus in culture. It is filed as cell-based. The following applies: Staphylococcus aureus.
The test system of series [28] is M. catarrhalis (26 STRAINS). Put plainly: Antibacterial activity against clinically isolated strains, MIC90. It is filed as cell-based. The following applies: Moraxella catarrhalis, 26 clinically isolated strains. As to the method: (§4) The antibacterial activities in vitro of the compound D, garenoxacin, and levofloxacin against each clinically isolated strain of Streptococcus pneumoniae, Moraxella catarrhalis, and Haemophilus influenzae were measured in accordance with a CLSI microdilution method or a CLSI agar dilution method. A MIC90 value was the minimum concentration in which the growth of 90% strain of all the measured strains was inhibited.

Series [29] deals with PCG-LOW SENSITIVE S. pneumoniae (22 STRAINS). Described as above. Particulars: Streptococcus pneumoniae, 22 clinically isolated strains. It is filed as cell-based. On the procedure:
as §4

In series [30] the test system is H. influenzaes (26 STRAINS). The series is described as above. It counts as cell-based. The following applies: Haemophilus influenzae, 26 clinically isolated strains. As to the method: as §4
The subject of series [31] is PSSP (26 STRAINS). The series is described as above. It is filed as cell-based. The following applies: Streptococcus pneumoniae, 26 clinically isolated strains. As to the method: as §4
For series [32] the following is noted: cited from earlier work.

Regarding `C[C@H]1COc2c(N3CCN(C)CC3)c(F)cc3c(=O)c(C(=O)O)cn1c23` [LVFX, levofloxacin], the MIC in series [1] came to 2 µg/mL (≈ 5.53 µM); in series [2], 2 µg/mL (≈ 5.53 µM); in [3], 16 µg/mL (≈ 44.3 µM); in series [4], 0.5 µg/mL (≈ 1.38 µM); in series [6], 1 µg/mL (≈ 2.77 µM); in series [8] it was 0.125 µg/mL. For the same molecule, the MIC in [10] stood at 8 µg/mL (≈ 22.1 µM); in series [11], 16 µg/mL (≈ 44.3 µM); in [13], 2 µg/mL (≈ 5.53 µM); in [14] it was 0.015 µg/mL (≈ 0.0415 µM); in [15], 1 µg/mL (≈ 2.77 µM); in series [16] it was 1 µg/mL (≈ 2.77 µM). The MIC in series [17] stood at 2 µg/mL (≈ 5.53 µM); in [18], 128 µg/mL (≈ 354 µM); in series [21] it was 32 µg/mL (≈ 88.6 µM); in series [26], 0.125 µg/mL (≈ 0.346 µM); in [27] it was 0.25 µg/mL (≈ 0.692 µM). In addition, the AUC in series [5] is 49670 ng·h/mL. In series [5], the Cmax is 6320 ng/mL. For the same molecule, the results for the negative logarithm of the IC50 (pIC50) in series [7] and in series [9] were 3.35 and 4.52, respectively. Also, the “FREQUENCY OF DEVELOPMENT OF RESISTANT BACTERIA (AVERAGE OF TWO MEASURED VALUES)” value is recorded as <2.1 × 10^−9 in [12] (S. aureus ATCC29213, 4 × MIC); <2.1 × 10^−9 in series [12] (S. aureus ATCC29213, 8 × MIC); <2.1 × 10^−9 in [12] (S. aureus ATCC29213, 16 × MIC); <1.1 × 10^−8 in [19] (S. pneumoniae ATCC49619, 4 × MIC); <1.1 × 10^−8 in series [19] (S. pneumoniae ATCC49619, 8 × MIC); <1.1 × 10^−8 in series [19] (S. pneumoniae ATCC49619, 16 × MIC). Further, the “FREQUENCY OF DEVELOPMENT OF RESISTANT BACTERIA (AVERAGE OF TWO MEASURED VALUES)” value in series [20] (E. coli ATCC25922, 4 × MIC) was 3.9 × 10^−9*; in series [20] (E. coli ATCC25922, 8 × MIC), <1.9 × 10^−9; in [20] (E. coli ATCC25922, 16 × MIC), <1.9 × 10^−9. Besides, the IC50 in [22] is 3600 µM; in series [23], 44.3 µM; in series [24], 238 µM; in [25], 7.75 µM. In addition, the MIC90 was determined as 0.03 µg/mL (≈ 0.083 µM) in series [28], 1 µg/mL (≈ 2.77 µM) in [29], 0.03 µg/mL (≈ 0.083 µM) in series [30] and 1 µg/mL (≈ 2.77 µM) in series [31].

For `CC1COc2c(N3CCN(C)CC3)c(F)cc3c(=O)c(C(=O)O)cn1c23` (stereo not shown) [ofloxacin], the “tissue distribution ratio into the lung tissue” value in [32] (rat, 1.0 hour after oral administration) is 2.7.

For the molecule `N[C@@H]1CN(c2c(F)cc3c(=O)c(C(=O)O)cn([C@@H]4C[C@@H]4F)c3c2Cl)CC12CC2` [sitafloxacin], in series [32] (male rat, 0.5 hours after single oral administration), the “tissue distribution ratio into the lung tissue” value is 2.7.
